From paper PMC10712729, “A Phase I Trial of the Dual MET Kinase/OCT-2 Inhibitor OMO-1 in Metastatic Solid Malignancies Including MET Exon 14 Mutated Lung Cancer” (The Oncologist, 2023)
Where “and” joins values, the source holds several entries; their conditions need not be identical. Identical values can stand only once. Entries after “also recorded” stand apart in the source; their conditions may differ.

Key:
[1] = Phase I safety and tolerability of OMO-1 monotherapy, Module 1 Part A dose escalation (drug-related TEAEs, DLTs, RP2D); conditions: for DLTs: first cycle
Description: This study was part of a modular, first-in-patient, openlabel multicenter study of OMO-1, administered orally, mono-therapy, and in combination with EGFR-TKI, in patients with locally advanced, unresectable, or metastatic solid malignancies (study protocol can be). […] Module 1 (OMO-1 monotherapy) consisted of Part A (dose escalation) and Part B (expansion cohorts). Part A assessed the safety and tolerability of ascending doses of OMO-1 given as monotherapy in unselected patients with locally advanced, unresectable, or metastatic malignancies and determined the recommended phase 2 dose (RP2D). Part B assessed the preliminary efficacy of the RP2D of OMO-1 in patients with METex14-positive NSCLC (cohort 1) and patients with MET amplified NSCLC or patients with other MET positive solid tumors, either METex14 or MET amplification (MET basket; cohort 2). The MET status of the tumor was assessed locally by site-specific guidelines. For MET exon 14 skipping mutations next generation sequencing (NGS) was used and for MET amplifications either NGS or fluorescence in situ hybridization (Supplementary 1). Prior treatment with a MET inhibitor was an exclusion criterion.
OMO-1 was administered orally, twice daily (BID) with a minimal interval of 4-5 h with food in a continuous 21 day/cycle regimen until clinical progression or emergence of significant toxicity. The starting dose was 100 mg BID. The dose was escalated sequentially in cohorts of at least 3 patients using a standard 3 + 3 dose escalation design. […] During the monotherapy dose escalation Module 1 Part A, blood samples were collected for PK analysis throughout the study as per protocol (S1).
The dose-limiting toxicity (DLT) evaluation period was within the first cycle of treatment; although all events beyond this point were also reviewed at the time of dose escalation to ensure an OLED was chosen as RP2D.
Safety analyses were descriptive. With respect to primary objectives and endpoints, no specific hypotheses were tested statistically. The primary focus was on determining the safety profile and RP2D, and the identification of a range of biologically active doses and PK of OMO-1 in patients with cancer. Safety, PK, and PD biomarker data were reviewed on an ongoing basis in line with the cohort progression criteria by the Safety Review Committee (SRC).

[2] = test system: organic cation transporter 2 (OCT-2); set-up: method as in PMID 14576340; conditions: cited from earlier work
METex14-positive NSCLC = experiment: Preliminary efficacy by RECIST v1.1, Module 1 Part B cohort 1; assay type: in vivo, human; conditions: OMO-1 monotherapy 200 or 250 mg BID
Experimental: The starting dose was 100 mg BID.
Safety analyses were descriptive.

FC(F)(c1ccc2ncccc2c1)c1nnc2ccc(-c3ccncc3)nn12 [OMO-1]
Vomiting, Drug-related TEAEs, All grades ([1]; 350 mg BID n = 5): 3 (60%) n (%) | Vomiting, Drug-related TEAEs, SAE ([1]; 350 mg BID n = 5): 1 (20%) n (%) | Anemia, Drug-related TEAEs, All grades ([1]; 400 mg BID n = 3): 1 (33%) n (%) | Blood bilirubin ↑, Drug-related TEAEs, All grades ([1]; 400 mg BID n = 3): 1 n (%) | Blood bilirubin ↑, Drug-related TEAEs, SAE ([1]; 400 mg BID n = 3): 1 (33%) n (%) | Blood creatinine ↑, Drug-related TEAEs, All grades ([1]; 400 mg BID n = 3): 3 (100%) n (%) | Blood creatinine ↑, Drug-related TEAEs, SAE ([1]; 400 mg BID n = 3): 1 (33%) n (%) | Chills/ influenza like symptoms, Drug-related TEAEs, All grades ([1]; 400 mg BID n = 3): 1 (33%) n (%) | Chills/ influenza like symptoms, Drug-related TEAEs, Grade ≥3 ([1]; 400 mg BID n = 3): 1 (33%) n (%) | Chills/ influenza like symptoms, Drug-related TEAEs, SAE ([1]; 400 mg BID n = 3): 1 (33%) n (%) | Decreased appetite, Drug-related TEAEs, All grades ([1]; 400 mg BID n = 3): 0 n (%) | Diarrhoea, Drug-related TEAEs, All grades ([1]; 400 mg BID n = 3): 1 (33%) n (%) | Diarrhoea, Drug-related TEAEs, SAE ([1]; 400 mg BID n = 3): 1 (33%) n (%) | Fatigue, Drug-related TEAEs, All grades ([1]; 400 mg BID n = 3): 2 (67%) n (%) | Nausea, Drug-related TEAEs, All grades ([1]; 400 mg BID n = 3): 1 (33%) n (%) | Nausea, Drug-related TEAEs, SAE ([1]; 400 mg BID n = 3): 1 (33%) n (%) | Neutrophil count↓, Drug-related TEAEs, All grades ([1]; 400 mg BID n = 3): 1 n (%) | Neutrophil count↓, Drug-related TEAEs, SAE ([1]; 400 mg BID n = 3): 1 (33%) n (%) | Tachycardia, Drug-related TEAEs, All grades ([1]; 400 mg BID n = 3): 1 (33%) n (%) | Total n with AE, Drug-related TEAEs, All grades ([1]; 400 mg BID n = 3): 3 (100%) n (%) | Total n with AE, Drug-related TEAEs, Grade ≥3 ([1]; 400 mg BID n = 3): 1 (33%) n (%) | Total n with AE, Drug-related TEAEs, SAE ([1]; 400 mg BID n = 3): 2 (67%) n (%) | patients discontinued due to related toxicity ([1]; 100, 200, and 250 mg BID): 25% (4/16) | Anemia, Drug-related TEAEs, All grades ([1]; All doses n = 24): 4 (17%) n (%) | Anemia, Drug-related TEAEs, Grade ≥3 ([1]; All doses n = 24): 1 (4%) n (%) | Blood bilirubin ↑, Drug-related TEAEs, All grades ([1]; All doses n = 24): 1 (4%) n (%) | Blood bilirubin ↑, Drug-related TEAEs, SAE ([1]; All doses n = 24): 1 (4%) n (%) | Blood creatinine ↑, Drug-related TEAEs, All grades ([1]; All doses n = 24): 9 (38%) n (%) | Blood creatinine ↑, Drug-related TEAEs, Grade ≥3 ([1]; All doses n = 24): 1 (4%) n (%) | Blood creatinine ↑, Drug-related TEAEs, SAE ([1]; All doses n = 24): 1 (4%) n (%) | Chills/ influenza like symptoms, Drug-related TEAEs, All grades ([1]; All doses n = 24): 3 (13%) n (%) | Chills/ influenza like symptoms, Drug-related TEAEs, Grade ≥3 ([1]; All doses n = 24): 1 (4%) n (%) | Chills/ influenza like symptoms, Drug-related TEAEs, SAE ([1]; All doses n = 24): 2 (8%) n (%) | Decreased appetite, Drug-related TEAEs, All grades ([1]; All doses n = 24): 4 (17%) n (%) | Diarrhoea, Drug-related TEAEs, SAE ([1]; All doses n = 24): 1 (4%) n (%) | Dizziness, Drug-related TEAEs, All grades ([1]; All doses n = 24): 4 (17%) n (%) | Fatigue, Drug-related TEAEs, All grades ([1]; All doses n = 24): 10 (42%) n (%) | Fatigue, Drug-related TEAEs, Grade ≥3 ([1]; All doses n = 24): 1 (4%) n (%) | Headache, Drug-related TEAEs, All grades ([1]; All doses n = 24): 5 (21%) n (%) | Nausea, Drug-related TEAEs, Grade ≥3 ([1]; All doses n = 24): 1 (4%) n (%) | Nausea, Drug-related TEAEs, SAE ([1]; All doses n = 24): 3 n (%) and 3 (13%) n (%) | Neutrophil count↓, Drug-related TEAEs, All grades ([1]; All doses n = 24): 1 (4%) n (%) | Neutrophil count↓, Drug-related TEAEs, SAE ([1]; All doses n = 24): 1 (4%) n (%) | Tachycardia, Drug-related TEAEs, All grades ([1]; All doses n = 24): 3 (13%) n (%) | Total n with AE, Drug-related TEAEs, All grades ([1]; All doses n = 24): 23 (96%) n (%) | Total n with AE, Drug-related TEAEs, Grade ≥3 ([1]; All doses n = 24): 6 (25%) n (%) | Total n with AE, Drug-related TEAEs, SAE ([1]; All doses n = 24): 7 n (%) and 7 (29%) n (%) | Vomiting, Drug-related TEAEs, All grades ([1]; All doses n = 24): 9 (38%) n (%) | Vomiting, Drug-related TEAEs, Grade ≥3 ([1]; All doses n = 24): 2 (8%) n (%) | Vomiting, Drug-related TEAEs, SAE ([1]; All doses n = 24): 2 n (%) and 2 (8%) n (%) | grade 5 (fatal) TEAEs ([1]; Module 1 Part A): No grade 5 (fatal) TEAEs | number of drug-related SAEs ([1]; Module 1 Part A, all doses): 11 | number of drug-related TEAE recorded ([1]; Module 1 Part A, all doses): 129 | patients discontinued due to toxicity related to OMO-1, in total ([1]; Module 1 Part A, all doses): 8 patients | patients with drug-related TEAE ([1]; Module 1 Part A, all doses): 23 out of 24 | DLTs ([1]; cohort 1 (100 mg BID)): no DLTs | DLTs ([1]; cohort 2 (200 mg BID)): no DLTs | number of TEAEs that led to OMO-1 treatment discontinuation ([1]; cohort 3 (400 mg BID)): 6 TEAEs | patients requiring a dose reduction due to treatment-related toxicity ([1]; cohort 3 (400 mg BID)): 2 out of 3 | DLTs ([1]; cohort 3 (400 mg BID)): no DLTs | DLTs ([1]; cohort 4 (250 mg BID)): No DLTs | peripheral edema related to OMO-1 ([1]; in vivo): No reports | recommended phase 2 dose (RP2D) ([1]; oral monotherapy, 3 + 3 dose escalation, continuous 21 day/cycle): 250 mg BID | inhibition of OCT-2 [2]: potent inhibitor | clinical benefit duration of at least 8 weeks (METex14-positive NSCLC): 5/10 | partial response (METex14-positive NSCLC; RECIST v.1.1): No patients; also recorded: no partial response
